Laboratory results published in patent US20260315564A1, “THE USE OF TP3 (THYMOPENTIN ANALOG) BY INCREASING THE ACTIVITY AND NUMBER OF T-CELLS INVOLVED IN THE DEFENSE MECHANISM OF THE IMMUNE SYSTEM OF MAMMALS, FOR THE PREVENTION OR TREATMENT OF DISEASES TO EXTEND THE AVERAGE LIFESPAN” (priority 2023, published 2026).
Marks after values point to notes of the source that are not given here.

Tested on: peritoneal macrophages
Assay: Phagocytic function of peritoneal macrophages ex vivo in CFLP outbred mice (CY-immunosuppressed)
From the text: 6.2./Examination of the Effect on the Phagocytic Function of Peritoneal Macrophages CFLP Outbred in Mice
Macrophage phagocytosis ex vivo (X=yeast/100 cells)

In the case of `O=P1(N(CCCl)CCCl)NCCCO1` (centres unmarked) [CY], the “phagocytic activity of macrophages” value (CY immunosuppression, 1.0 mg/kg/sc (TP3), in words) is reported as “significantly inhibited” and the “macrophage phagocytosis ex vivo” value (CY p.o. alone, n = 15, untreated control 194.5) is reported as 111.5* yeast/100 cells.
